Assay: Schulze ring shear test (flow properties)
Type: physicochemical
Conditions: normal load 1.5 kPa, 24° C., humidity 30%, no storage time
From the text: The device used is the Schulze ring shear tester RST-XS.s for which a general technical product information is available on http://www.dietmar-schulze.de. We were using the shear cell XS-SV3. A statement referring to the testing procedure from the technical product information for RST-XS.s reads as follows: • “Testing procedure: The powder sample is contained in an annular shear cell “(FIG. 19B). • “A vertical load ? N] is applied through a thin loading rod on the annular lid. To shear the sample, the shear cell rotates relative to the lid (direction ω), and the torque necessary for shearing is determined from forces and F1 and F2 acting in a tie rod and a push rod. Following a well-defined procedure, which is executed computer-controlled, the flow properties are measured. […]
During the shear test, the bottom ring slowly rotated in the direction of the arrow with the low rotational speed ω of 2 rpm maximum. Rotation of the lid was prevented by the tension rods; the tensile forces F1 and F2 necessary to achieve this are measured by the load cells. From the normal and shear forces respectively stresses, the so-called yield locus was determined, which describes the flow behavior of a bulk solid. […]
The experimental data obtained were analyzed following the method described in Schulze, D. (2008). […] FIG. 21 provides the flow factor of both samples as calculated on basis of the ring shear experiment. […]

flow behaviour (flow factor ffc): flowing a bit better than polymorph A
Compound: C[C@@H]1OC(=O)NN=C1c1ccc(-c2ccc(F)cc2)c(C(F)(F)F)c1 [polymorph C, (6S)-5-[4′-Fluoro-2-(trifluoromethyl)biphenyl-4-yl]-6-methyl-3,6-dihydro-2H-1,3,4-oxadiazin-2-one]

Source: patent US20260258004A1, “CRYSTALLINE FORMS OF (6S)-5-[4'-FLUORO-2-(TRIFLUOROMETHYL)BIPHENYL-4-YL]-6-METHYL-3,6- DIHYDRO-2H-l,3,4-OXADIAZIN-2-ONE” (Bayer Aktiengesellschaft, priority 2022, published 2026)
